Read-outs that look alike come from different tables or passages of the source.
Molecular target: T1, rat mGluR5 receptor (Rattus norvegicus, UniProt P31424)
T1 construct: expressed in transfected cells; host or cells: HEK-293
Test: [3H]-MPEP displacement binding assay, HEK-293 cell membranes expressing rat mGluR5
Conditions: for Ki: read-out: Median Ki
Experimental: MGluR5 expressing HEK-293 cells were scraped off a plate, transferred to centrifuge tubes and washed twice by centrifugation (2000 rpm for 10 minutes, at 4° C.) in buffer (50 mM Tris pH 7.5). The resulting pellets were aliquoted and stored at minus 80° C. On the day of assay, the cells were thawed on ice and re-suspended in buffer. The binding assay was performed in a 96 well microtiter plate in a total volume of […]. Non-specific binding was determined in the presence of 10 μM MPEP. The binding reaction included a final radioligand [^3H]-MPEP concentration of 4 nM and 12-25 μg membrane protein per well. Following a 60 minute incubation at room temperature, the reaction was terminated by the addition of ice cold buffer and rapid filtration through a GF/B filter that had been presoaked for 30 minutes in 0.5% PEI. Compounds were initially tested in a single point assay to determine percent inhibition at 10 μM.
Percent inhibition and Ki values were generated by GraphPad Prism and Excel Fit. IC50 values were calculated using GraphPad by fitting to a 1 or 2 site-binding model.
where [L] is the concentration of free radioligand and Kd is the dissociation constant of radioligand for the receptor.

[1] = @ 10 μM compound, Biological Activity, Table 2A, read-out: PCT INHIB (%) @ 10 μM

T1 sequence (P31424 21-1203): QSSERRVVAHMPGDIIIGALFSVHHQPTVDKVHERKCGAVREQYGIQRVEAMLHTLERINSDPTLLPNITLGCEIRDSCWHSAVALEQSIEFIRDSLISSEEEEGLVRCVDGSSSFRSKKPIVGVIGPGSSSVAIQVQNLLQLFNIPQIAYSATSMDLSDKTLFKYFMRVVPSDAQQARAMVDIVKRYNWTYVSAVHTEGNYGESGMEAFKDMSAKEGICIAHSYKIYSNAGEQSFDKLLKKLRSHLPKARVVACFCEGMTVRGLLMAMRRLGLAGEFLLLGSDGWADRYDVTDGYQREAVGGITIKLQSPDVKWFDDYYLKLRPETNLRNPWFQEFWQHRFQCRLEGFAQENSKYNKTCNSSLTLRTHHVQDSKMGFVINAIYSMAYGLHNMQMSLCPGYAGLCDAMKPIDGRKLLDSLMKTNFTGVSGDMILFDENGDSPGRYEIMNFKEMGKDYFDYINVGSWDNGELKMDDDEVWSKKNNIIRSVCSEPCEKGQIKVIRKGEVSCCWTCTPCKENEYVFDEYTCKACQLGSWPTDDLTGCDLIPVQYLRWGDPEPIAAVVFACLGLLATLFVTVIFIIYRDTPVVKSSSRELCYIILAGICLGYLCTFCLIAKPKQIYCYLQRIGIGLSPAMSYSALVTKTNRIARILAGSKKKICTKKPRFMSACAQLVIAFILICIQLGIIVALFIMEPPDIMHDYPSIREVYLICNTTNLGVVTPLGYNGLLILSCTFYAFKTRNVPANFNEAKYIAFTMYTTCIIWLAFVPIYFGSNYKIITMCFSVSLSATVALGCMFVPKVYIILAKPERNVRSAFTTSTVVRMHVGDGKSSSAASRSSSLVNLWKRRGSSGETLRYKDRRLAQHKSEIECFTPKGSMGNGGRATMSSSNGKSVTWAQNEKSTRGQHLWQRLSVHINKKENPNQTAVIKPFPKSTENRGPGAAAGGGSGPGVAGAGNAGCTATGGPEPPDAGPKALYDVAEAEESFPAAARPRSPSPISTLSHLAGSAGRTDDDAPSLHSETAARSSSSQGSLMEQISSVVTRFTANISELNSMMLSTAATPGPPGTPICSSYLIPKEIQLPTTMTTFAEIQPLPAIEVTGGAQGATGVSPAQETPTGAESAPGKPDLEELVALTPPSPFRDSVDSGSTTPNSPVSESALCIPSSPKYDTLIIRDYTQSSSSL

Cc1ccc(C(=O)N2CCN(c3cnccn3)CC2)cc1C#Cc1cccc(C(F)(F)F)c1 [Compound 60, 2-[4-(4-methyl-3-{[3-(trifluoromethyl)phenyl]ethynyl}benzoyl)piperazin-1-yl]pyrazine]
inhibition at 10 µM (1 h, single point, @ 10 μm compound, Table 1A, read-out: PCT INHIB (%) @ 10 μm): 85%
Ki: 749 nM

COc1ccc(C(=O)N2CCN(c3cnccn3)CC2)cc1C#Cc1cccc(F)c1 [Compound 61, 2-(4-{3-[(3-fluorophenyl)ethynyl]-4-methoxybenzoyl}piperazin-1-yl)pyrazine]
Ki: 21.7 nM

Cc1ccc(C(=O)N2CCN(c3cnccn3)CC2)cc1C#Cc1cccc(F)c1 [Compound 62, 2-(4-{3-[(3-fluorophenyl)ethynyl]-4-methylbenzoyl}piperazin-1-yl)pyrazine]
Ki: 121 nM

COc1ccc(C(=O)N2CCN(c3ccccn3)CC2)cc1C#Cc1cccc(F)c1 [Compound 63, 1-{3-[(3-fluorophenyl)ethynyl]-4-methoxybenzoyl}-4-pyridin-2-ylpiperazine]
Ki: 7.34 nM

Cc1ccc(C(=O)N2CCN(c3ccccn3)CC2)cc1C#Cc1cccc(F)c1 [Compound 64, 1-{3-[(3-fluorophenyl)ethynyl]-4-methylbenzoyl}-4-pyridin-2-ylpiperazine]
Ki: 131 nM

COc1ccc(C(=O)N2CCN(c3cnccn3)CC2)cc1C#Cc1cccc(Cl)c1 [Compound 65, 2-(4-{3-[(3-chlorophenyl)ethynyl]-4-methoxybenzoyl}piperazin-1-yl)pyrazine]
Ki: 2.11 nM

COc1ccc(C(=O)N2CCN(c3cnccn3)CC2)cc1C#Cc1ccccn1 [Compound 66, 2-{4-[4-methoxy-3-(pyridin-2-ylethynyl)benzoyl]piperazin-1-yl}pyrazine]
Ki: 21.2 nM

Cc1ccc(C(=O)N2CCN(c3cnccn3)CC2)cc1C#Cc1cccc(Cl)c1 [Compound 67, 2-(4-{3-[(3-chlorophenyl)ethynyl]-4-methylbenzoyl}piperazin-1-yl)pyrazine]
Ki: 49.1 nM

Cc1ccc(C(=O)N2CCN(c3cnccn3)CC2)cc1C#Cc1ccccn1 [Compound 68, 2-{4-[4-methyl-3-(pyridin-2-ylethynyl)benzoyl]piperazin-1-yl}pyrazine]
Ki: 8.84 nM

CN1CCN(C(=O)c2cccc(C#Cc3ccccc3)c2)CC1 [Compound 70, 1-methyl-4-[3-(phenylethynyl)benzoyl]piperazine]
inhibition at 10 µM [1]: 0%

COc1ccc(N2CCN(C(=O)c3cccc(C#Cc4ccccc4)c3)CC2)cc1 [Compound 71, 1-(4-methoxyphenyl)-4-[3-(phenylethynyl)benzoyl]piperazine]
inhibition at 10 µM [1]: 40%

O=C(c1cccc(C#Cc2ccccc2)c1)N1CCN(c2ccc(Cl)cc2)CC1 [Compound 72, 1-(4-chlorophenyl)-4-[3-(phenylethynyl)benzoyl]piperazine]
inhibition at 10 µM [1]: 30%

Cc1ccc(N2CCN(C(=O)c3cccc(C#Cc4ccccc4)c3)CC2)cc1 [Compound 73, 1-(4-methylphenyl)-4-[3-(phenylethynyl)benzoyl]piperazine]
inhibition at 10 µM [1]: 0%

CC(=O)c1ccc(N2CCN(C(=O)c3cccc(C#Cc4ccccc4)c3)CC2)cc1 [Compound 74, 1-(4-{-[3-(phenylethynyl)benzoyl]piperazine-1-yl}phenyl)ethanone]
PCT INHIB (%) @ 10 μM (@ 10 μM compound, Biological Activity, Table 2A): 20%

O=C(c1cccc(C#Cc2ccccc2)c1)N1CCN(c2ccc([N+](=O)[O-])cc2)CC1 [Compound 75, 1-(4-nitrophenyl)-4-[3-(phenylethynyl)benzoyl]piperazine]
inhibition at 10 µM [1]: 20%

O=C(c1cccc(C#Cc2ccccc2)c1)N1CCN(c2ccccc2)CC1 [Compound 76, 1-phenyl-4-[3-(phenylethynyl)benzoyl]piperazine]
inhibition at 10 µM [1]: 86%
Ki (Biological Activity, Table 2A): 1290 nM

O=C(c1cccc(C#Cc2ccccc2)c1)N1CCN(c2ccc(C(F)(F)F)cc2)CC1 [Compound 77, 1-[3-(phenylethynyl)benzoyl]-4-[4-(trifluoromethyl)phenyl]piperazine]
inhibition at 10 µM [1]: 0%

Cc1cccc(C)c1N1CCN(C(=O)c2cccc(C#Cc3ccccc3)c2)CC1 [Compound 78, 1-(2,6-dimethylphenyl)-4-[3-(phenylethynyl)benzoyl]piperazine]
inhibition at 10 µM [1]: 53%
Ki (Biological Activity, Table 2A): > 10000 nM

O=C(c1cccc(C#Cc2ccccc2)c1)N1CCN(c2ccc(F)cc2)CC1 [Compound 79, 1-(4-fluorophenyl)-4-[3-(phenylethynyl)benzoyl]piperazine]
inhibition at 10 µM [1]: 28%

CSc1ccccc1N1CCN(C(=O)c2cccc(C#Cc3ccccc3)c2)CC1 [Compound 80, 1-[2-(methylthio)phenyl]-4-[3-(phenylethynyl)benzoyl]piperazine]
inhibition at 10 µM [1]: 24%

COc1cccc(N2CCN(C(=O)c3cccc(C#Cc4ccccc4)c3)CC2)c1 [Compound 81, 1-(3-methoxyphenyl)-4-[3-(phenylethynyl)benzoyl]piperazine]
inhibition at 10 µM [1]: 78%
Ki (Biological Activity, Table 2A): 3390 nM

O=C(c1cccc(C#Cc2ccccc2)c1)N1CCN(c2cccc(Cl)c2)CC1 [Compound 82, 1-(3-chlorophenyl)-4-[3-(phenylethynyl)benzoyl]piperazine]
inhibition at 10 µM [1]: 58%
Ki (Biological Activity, Table 2A): 2770 nM

O=C(c1cccc(C#Cc2ccccc2)c1)N1CCN(c2ccc(O)cc2)CC1 [Compound 83, 4-{4-[3-(phenylethynyl)benzoyl]piperazin-1-yl}phenol]
inhibition at 10 µM [1]: 74%
Ki (Biological Activity, Table 2A): > 10000 nM

O=C(c1cccc(C#Cc2ccccc2)c1)N1CCN(c2cc(Cl)cc(Cl)c2)CC1 [Compound 84, 1-(3,5-dichlorophenyl)-4-[3-(phenylethynyl)benzoyl]piperazine]
inhibition at 10 µM [1]: 0%

O=C(c1cccc(C#Cc2ccccc2)c1)N1CCN(c2cccc(C(F)(F)F)c2)CC1 [Compound 85, 1-[3-(phenylethynyl)benzoyl]-4-[3-(trifluoromethyl)phenyl]piperazine]
inhibition at 10 µM [1]: 32%

O=C(c1cccc(C#Cc2ccccc2)c1)N1CCN(c2cnccn2)CC1 [Compound 86, 2-{4-[3-(phenylethynyl)benzoyl]piperazin-1-yl}pyrazine]
inhibition at 10 µM [1]: 85%

O=C(c1cncc(C#Cc2ccccc2)c1)N1CCN(c2ccccn2)CC1 [Compound 87, 1-{[5-(phenylethynyl)pyridin-3-yl]carbonyl}-4-pyridin-2-ylpiperazine]
inhibition at 10 µM [1]: 56%
Ki (Biological Activity, Table 2A): 3310 nM

O=C(c1ccc(F)c(C#Cc2ccccc2)c1)N1CCN(c2ccccn2)CC1 [Compound 89, 1-[4-fluoro-3-(phenylethynyl)benzoyl]-4-pyridin-2-ylpiperazine]
inhibition at 10 µM [1]: 51%
Ki (Biological Activity, Table 2A): 50 nM

Cc1c(C#Cc2ccccc2)cccc1C(=O)N1CCN(c2ccccn2)CC1 [Compound 91, 1-[2-methyl-3-(phenylethynyl)benzoyl]-4-pyridin-2-ylpiperazine]
inhibition at 10 µM [1]: 18%

O=C(c1cccc(C#Cc2cccnc2)c1)N1CCN(c2ccccn2)CC1 [Compound 93, 1-pyridin-2-yl-4-[3-(pyridin-3-ylethynyl)benzoyl]piperazine]
inhibition at 10 µM [1]: 26%

O=C(c1cccc(C#Cc2ccccn2)c1)N1CCN(c2cnccn2)CC1 [Compound 94, 2-{4-[3-(pyridin-2-ylethynyl)benzoyl]piperazin-1-yl}pyrazine]
inhibition at 10 µM [1]: 79%
Ki (Biological Activity, Table 2A): 395 nM

N#Cc1ccc(N2CCN(C(=O)c3cccc(C#Cc4ccccn4)c3)CC2)nc1 [Compound 96, 6-{4-[3-(pyridin-2-ylethynyl)benzoyl]piperazin-1-yl}nicotinonitrile]
inhibition at 10 µM [1]: 50%
Ki (Biological Activity, Table 2A): 3240 nM

O=C(c1cccc(C#Cc2ccccn2)c1)N1CCN(c2nnn[nH]2)CC1 [Compound 97, 1-[3-(pyridin-2-ylethynyl)benzoyl]-4-(1H-tetrazol-5-yl)piperazine]
inhibition at 10 µM [1]: 0%

CC1CN(c2ccccn2)CCN1C(=O)c1cccc(C#Cc2ccccn2)c1 (stereo not drawn) [Compound 98, 2-methyl-4-pyridin-2-yl-1-[3-(pyridin-2-ylethynyl)benzoyl]piperazine]
inhibition at 10 µM [1]: 72%
Ki (Biological Activity, Table 2A): 679 nM

O=C(c1cccc(C#Cc2ccccn2)c1)N1CCN(c2ncc(O)cn2)CC1 [Compound 99, 2-{4-[3-(pyridin-2-ylethynyl)benzoyl]piperazin-1-yl}pyrimidin-5-ol]
inhibition at 10 µM [1]: 64%
Ki (Biological Activity, Table 2A): 1450 nM

Cc1cc(C)nc(N2CCN(C(=O)c3cccc(C#Cc4ccccn4)c3)CC2)n1 [Compound 100, 4,6-dimethyl-2-{4-[3-(pyridin-2-ethynyl)benzoyl]piperazin-1-yl}pyrimidine]
inhibition at 10 µM [1]: 55%
Ki (Biological Activity, Table 2A): 2160 nM

COc1cccnc1N1CCN(C(=O)c2cccc(C#Cc3ccccn3)c2)CC1 [Compound 101, 1-(3-methoxypyridin-2-yl)-4-[3-(pyridin-2-ylethynyl)benzoyl]piperazine]
inhibition at 10 µM [1]: 52%
Ki (Biological Activity, Table 2A): 2350 nM

COc1nsnc1N1CCN(C(=O)c2cccc(C#Cc3ccccn3)c2)CC1 [Compound 102, 1-(4-methoxy-1,2,5-thiadiazol-3-yl)-4-[3-(pyridin-2-ylethynyl)benzoyl]piperazine]
inhibition at 10 µM [1]: 92%
Ki (Biological Activity, Table 2A): 80 nM

Cc1cnc(C)c(N2CCN(C(=O)c3cccc(C#Cc4ccccn4)c3)CC2)n1 [Compound 103, 2,5-dimethyl-3-{4-[3-(pyridin-2-ylethynyl)benzoyl]piperazin-1-yl}pyrazine]
inhibition at 10 µM [1]: 16%

Source: patent US20090325964A1, “Piperazine Metabotropic Glutamate Receptor 5 (MGLUR5) Negative Allosteric Modulators For Anxiety/Depression” (Wyeth, priority 2008, published 2009)
